Assay results: ChEMBL document CHEMBL1909046, “DrugMatrix in vitro pharmacology data”

Tests used:
[1] = biological target: T1, Cathepsin G (Homo sapiens, UniProt P08311); assay: biochemical; type: tissue-based, Neutrophil; conditions: neutrophil;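 also: inhibition of Cathepsin G enzyme activity, tested on an AMC-conjugated peptide substrate; in other assays of this panel Not Active means under 50% inhibition at 10 µM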
T1 sequence (P08311 whole entry): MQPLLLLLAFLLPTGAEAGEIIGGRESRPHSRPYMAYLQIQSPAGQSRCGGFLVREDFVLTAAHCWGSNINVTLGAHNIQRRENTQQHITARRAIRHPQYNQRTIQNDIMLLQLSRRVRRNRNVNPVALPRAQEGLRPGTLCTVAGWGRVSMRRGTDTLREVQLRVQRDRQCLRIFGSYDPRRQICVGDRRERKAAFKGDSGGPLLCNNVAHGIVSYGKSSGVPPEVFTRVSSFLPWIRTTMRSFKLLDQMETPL

[2] = biological target: T2, Cholecystokinin receptor type A (Homo sapiens, UniProt P32238); type: cell membranes, Membrane; conditions: 1321-n1; also: in other assays of this panel Not Active means under 50% inhibition at 10 µM
T2 sequence (P32238 whole entry): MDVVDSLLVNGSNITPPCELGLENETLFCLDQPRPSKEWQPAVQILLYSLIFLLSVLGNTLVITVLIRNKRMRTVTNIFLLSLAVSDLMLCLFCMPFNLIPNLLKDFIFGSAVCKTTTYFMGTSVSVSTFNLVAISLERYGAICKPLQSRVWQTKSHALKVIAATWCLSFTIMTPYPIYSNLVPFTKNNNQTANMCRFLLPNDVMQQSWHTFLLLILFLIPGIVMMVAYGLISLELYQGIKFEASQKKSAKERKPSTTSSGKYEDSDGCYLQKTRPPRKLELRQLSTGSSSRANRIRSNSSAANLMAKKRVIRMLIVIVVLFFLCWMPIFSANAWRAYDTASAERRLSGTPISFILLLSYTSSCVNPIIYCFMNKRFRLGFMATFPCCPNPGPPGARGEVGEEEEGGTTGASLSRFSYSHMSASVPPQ

[3] = biological target: Melanocortin receptor 3 (Homo sapiens, UniProt P41968); type: cell membranes, HEK293, Membrane; conditions: hek293; also: in other assays of this panel Not Active means under 50% inhibition at 10 µM
[4] = DRUGMATRIX: Phosphodiesterase PDE3 enzyme inhibition (substrate: [3H]cAMP + cAMP); type: tissue-based, Homo sapiens; conditions: platelet, Not Active = under 50% inhibition at 10 µM
[5] = biological target: Epidermal growth factor receptor (Homo sapiens, UniProt P00533); assay: DRUGMATRIX: Protein Tyrosine Kinase, EGF Receptor enzyme inhibition (substrate: Poly(Glu:Tyr)); type: cell-based, Insect cells; conditions: Not Active = under 50% inhibition at 10 µM
[6] = biological target: Protein kinase C alpha type (Homo sapiens, UniProt P17252); type: cell-based; conditions: sf9;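 also: inhibition of PKCalpha kinase activity measured in an enzyme assay with histone as the phosphorylation substrate; in other assays of this panel Not Active means under 50% inhibition at 10 µM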
[7] = biological target: 5-hydroxytryptamine receptor 1B (Rattus norvegicus, UniProt P28564); type: cell membranes, Wistar, Cerebral cortex, Membrane; also: in other assays of this panel Not Active means under 50% inhibition at 10 µM
Chain of 5-hydroxytryptamine receptor 1B (P28564 whole entry): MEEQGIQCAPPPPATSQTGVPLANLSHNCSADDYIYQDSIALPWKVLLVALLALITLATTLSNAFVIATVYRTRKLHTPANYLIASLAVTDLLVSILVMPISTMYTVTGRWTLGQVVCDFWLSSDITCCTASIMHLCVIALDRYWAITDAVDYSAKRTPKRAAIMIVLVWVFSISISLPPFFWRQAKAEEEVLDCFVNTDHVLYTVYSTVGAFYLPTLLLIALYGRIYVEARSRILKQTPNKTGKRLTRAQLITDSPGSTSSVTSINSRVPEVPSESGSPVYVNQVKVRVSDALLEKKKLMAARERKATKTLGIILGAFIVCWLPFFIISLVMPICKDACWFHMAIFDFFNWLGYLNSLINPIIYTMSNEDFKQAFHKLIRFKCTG

Chain of Melanocortin receptor 3 (P41968 whole entry): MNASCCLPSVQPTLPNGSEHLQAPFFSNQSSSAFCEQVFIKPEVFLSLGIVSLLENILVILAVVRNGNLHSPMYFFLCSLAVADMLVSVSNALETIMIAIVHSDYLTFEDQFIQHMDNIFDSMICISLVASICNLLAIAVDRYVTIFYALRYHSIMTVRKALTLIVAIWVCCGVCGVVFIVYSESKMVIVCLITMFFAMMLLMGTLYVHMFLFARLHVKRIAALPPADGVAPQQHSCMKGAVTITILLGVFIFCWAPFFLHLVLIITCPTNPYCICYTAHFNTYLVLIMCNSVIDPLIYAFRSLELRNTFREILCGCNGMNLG

Compound | IC50 [1] | IC50 [2] | IC50 [3] | IC50 [4] | Ki [4] | IC50 ([5]; insect cells) | IC50 [6] | IC50 [7] | IC50 ([7]; read-out: IC50) [nM] | Ki ([7]; read-out: Ki) [nM] | IC50 ([4]; read-out: IC50) [nM] | IC50 ([5]; read-out: IC50) [nM] | Ki [1] | Ki [2] | Ki [3] | Ki ([5]; insect cells) | Ki [6] | Ki [7]
OC[C@H]1O[C@@H]2O[C@H]3[C@H](O)[C@@H](O)[C@@H](O[C@H]4[C@H](O)[C@@H](O)[C@@H](O[C@H]5[C@H](O)[C@@H](O)[C@@H](O[C@H]6[C@H](O)[C@@H](O)[C@@H](O[C@H]7[C@H](O)[C@@H](O)[C@@H](O[C@H]1[C@H](O)[C@H]2O)O[C@@H]7CO)O[C@@H]6CO)O[C@@H]5CO)O[C@@H]4CO)O[C@@H]3CO [ALFADEX] | Not Active | Not Active | Not Active | Not Active | Not Active | Not Active | Not Active | Not Active |  |  |  |  |  |  |  |  |  | 
COC(=O)C[C@](O)(CCC(C)(C)O)C(=O)O[C@@H]1C(OC)=C[C@]23CCCN2CCc2cc4c(cc2[C@H]13)OCO4 [HARRINGTONINE] | Not Active | Not Active | Not Active | Not Active | Not Active | Not Active | Not Active | Not Active |  |  |  |  |  |  |  |  |  | 
O=C1CN(/N=C/c2ccc([N+](=O)[O-])o2)C(=O)N1 [NITROFURANTOIN] | Not Active | Not Active | Not Active | Not Active | Not Active | Not Active | Not Active | Not Active |  |  |  |  |  |  |  |  |  | 
C[N+](C)(C)CCOC(N)=O.[Cl-] [CARBACHOL] | Not Active | Not Active | Not Active | Not Active | Not Active | Not Active | Not Active | Not Active |  |  |  |  |  |  |  |  |  | 
O=C(NCCN1CCOCC1)c1ccc(Cl)cc1 [MOCLOBEMIDE] | Not Active | Not Active | Not Active | Not Active | Not Active | Not Active | Not Active | Not Active |  |  |  |  |  |  |  |  |  | 
CC12CCC(CC1)C(C)(C)O2 [EUCALYPTOL] | Not Active | Not Active | Not Active | Not Active | Not Active | Not Active | Not Active | Not Active |  |  |  |  |  |  |  |  |  | 
CC(N)Cc1c[nH]c2ccc(OCc3cccs3)cc12 (centres undefined) [BW-723C86] | Not Active | Not Active | Not Active | Not Active | Not Active | Not Active | Not Active |  | 421 | 400 |  |  |  |  |  |  |  | 
CCN1C[C@]2(COC)[C@H](O)C[C@H](OC)[C@@]34[C@@H]5C[C@@]6(O)[C@H](OC(=O)c7ccccc7)[C@@H]5[C@@](OC(C)=O)([C@@H]([C@H](OC)[C@H]23)[C@@H]14)[C@@H](O)[C@@H]6OC [ACONITINE] | Not Active | Not Active | Not Active | Not Active | Not Active | Not Active | Not Active | Not Active |  |  |  |  |  |  |  |  |  | 
OC[C@H]1OC2C3[C@@H](CO)OC(O[C@H]4[C@H](O)[C@@H](O)[C@@H](O[C@H]5[C@H](O)[C@@H](O)[C@@H](O[C@H]6[C@H](O)[C@@H](O)[C@@H](O[C@H]7[C@H](O)[C@@H](O)[C@@H](O[C@H]8[C@H](O)[C@@H](O)[C@@H](O[C@H]9[C@H](O)[C@@H](O)C(OC1[C@H](O)[C@H]2O)O[C@@H]9CO)O[C@@H]8CO)O[C@@H]7CO)O[C@@H]6CO)O[C@@H]5CO)O[C@@H]4CO)[C@H](O)[C@H]3O | Not Active | Not Active | Not Active | Not Active | Not Active | Not Active | Not Active | Not Active |  |  |  |  |  |  |  |  |  | 
CN(CCOc1ccc(C[C@H](Nc2ccccc2C(=O)c2ccccc2)C(=O)O)cc1)c1ccccn1 | Not Active | Not Active | Not Active |  |  |  | Not Active | Not Active |  |  | 19400 | 10900 |  |  |  |  |  | 
CCN1CCN(c2cc3c(cc2F)c(=O)c(C(=O)O)cn3C2CC2)CC1 [ENROFLOXACIN] | Not Active | Not Active | Not Active | Not Active | Not Active | Not Active | Not Active | Not Active |  |  |  |  |  |  |  |  |  | 
NS(=O)(=O)c1cc(C(=O)O)c(NCc2ccco2)cc1Cl [FUROSEMIDE] | Not Active | Not Active | Not Active | Not Active | Not Active | Not Active | Not Active | Not Active |  |  |  |  |  |  |  |  |  | 
NC(=O)NC(=O)Cc1ccccc1 [PHENACEMIDE] | Not Active | Not Active | Not Active | Not Active | Not Active | Not Active | Not Active | Not Active |  |  |  |  |  |  |  |  |  | 
Cc1cc(C(C)(C)C)c(O)c(C)c1CC1=NCCN1 [OXYMETAZOLINE] | Not Active | Not Active | Not Active | Not Active | Not Active | Not Active | Not Active |  | 2 | 0.909 |  |  |  |  |  |  |  | 
CC(CN1c2ccccc2Sc2ccccc21)N(C)C (centres undefined) [PROMETHAZINE] | Not Active | Not Active | Not Active | Not Active | Not Active | Not Active | Not Active | Not Active |  |  |  |  |  |  |  |  |  | 
NC(N)=Nc1nc(CSCCC(N)=NS(N)(=O)=O)cs1 [FAMOTIDINE] | Not Active | Not Active | Not Active | Not Active | Not Active | Not Active | Not Active | Not Active |  |  |  |  |  |  |  |  |  | 
C[C@]12CC[C@@H](O)C[C@@H]1CC[C@@H]1[C@@H]2CC[C@]2(C)C(=O)CC[C@@H]12 [ANDROSTERONE] | Not Active | Not Active | Not Active | Not Active | Not Active | Not Active | Not Active | Not Active |  |  |  |  |  |  |  |  |  | 
ClC1=C(Cl)[C@]2(Cl)[C@@H]3[C@@H]4C[C@@H]([C@H]5O[C@@H]45)[C@@H]3[C@@]1(Cl)C2(Cl)Cl [DIELDRIN] | Not Active | Not Active | Not Active | Not Active | Not Active | Not Active | Not Active | Not Active |  |  |  |  |  |  |  |  |  | 
CC(=O)[C@]1(O)Cc2c(O)c3c(c(O)c2[C@@H](O[C@H]2C[C@H](N)[C@H](O)[C@H](C)O2)C1)C(=O)c1ccccc1C3=O [IDARUBICIN] | Not Active | Not Active | Not Active | Not Active | Not Active | Not Active | Not Active | Not Active |  |  |  |  |  |  |  |  |  | 
COC(=O)Nc1nc2ccc(Sc3ccccc3)cc2[nH]1 [FENBENDAZOLE] | Not Active | Not Active | Not Active | Not Active | Not Active | Not Active | Not Active | Not Active |  |  |  |  |  |  |  |  |  | 
Cc1ccnc2c1NC(=O)c1cccnc1N2C1CC1 [NEVIRAPINE] | Not Active | Not Active | Not Active | Not Active | Not Active | Not Active | Not Active | Not Active |  |  |  |  |  |  |  |  |  | 
COPPER(II) OXIDE | Not Active | Not Active | Not Active | Not Active | Not Active | Not Active | Not Active | Not Active |  |  |  |  | Not Active | Not Active | Not Active | Not Active | Not Active | Not Active
OC[C@H]1O[C@@H]2O[C@H]3[C@H](O)[C@@H](O)[C@@H](O[C@H]4[C@H](O)[C@@H](O)[C@@H](O[C@H]5[C@H](O)[C@@H](O)[C@@H](O[C@H]6[C@H](O)[C@@H](O)[C@@H](O[C@H]7[C@H](O)[C@@H](O)[C@@H](O[C@H]8[C@H](O)[C@@H](O)[C@@H](O[C@H]1[C@H](O)[C@H]2O)O[C@@H]8CO)O[C@@H]7CO)O[C@@H]6CO)O[C@@H]5CO)O[C@@H]4CO)O[C@@H]3CO [BETADEX] | Not Active | Not Active | Not Active | Not Active | Not Active | Not Active | Not Active | Not Active |  |  |  |  |  |  |  |  |  | 
O=C(O)CO [GLYCOLIC ACID] | Not Active | Not Active | Not Active | Not Active | Not Active | Not Active | Not Active | Not Active |  |  |  |  |  |  |  |  |  | 
